Data taken from patent US20210380596A1, “UPADACITINIB CRYSTAL FORM AND PREPARATION METHOD THEREFOR AND USE THEREOF” (CRYSTAL PHARMACEUTICAL (SUZHOU) CO., LTD., priority 2019, published 2021).
Values after ≈ are worked out from the molar mass of the structure shown. Values joined by “and” are separate entries in the source; they are usually repeats but may differ in a detail not shown here. Equal values may be shown once. “Also recorded” adds a separate entry of the source. Each block holds one molecule with its values, some of them ahead of it.

How the values were obtained:
[1] = Compressibility (tablet hardness and tensile strength); assay type: physicochemical; conditions: for Diameter / Thickness: 80 mg, Φ6 mm tooling, 10 kN, after 24 h, tablets 1-3; for Average tensile strength: mean of three tablets
Procedure: An ENERPAC manual tablet press was used for compression. […] Until complete elastic recovery, hardness (H) was tested with an intelligent tablet hardness tester. Diameter (D) and thickness (L) were tested with a caliper. Tensile strength of the powder was calculated with the following formula: T=2H/πDL. Under a certain force, the greater the tensile strength, the better the compressibility.

[2] = Flowability (compressibility index / Carr index); assay type: physicochemical; conditions: for Bulk density (ρ0): 5-mL measuring cylinder, 500 mg; for Flowability: criteria of ICH Q4B Annex 13; for Tapped density (ρf): tapping times: 1250
Procedure: Compressibility index or Carr index is usually utilized to evaluate the flowability of powder and granules during the drug product process. Compressibility index test method is as follows: a certain amount of powder was added into a measuring cylinder and bulk volume was recorded. Then the powder was tapped to make it in the tightest state and the tapped volume was recorded. The bulk density ρ0 and tapped density pf were calculated. The compressibility index was calculated according to c=(ρf−ρ0)/ρf.
Equipment: ZS-2E tap density tester.
Parameter: 5-mL measuring cylinder, 500 mg, tapping times: 1250.

[3] = Adhesiveness (material sticking to the punch); assay type: physicochemical; conditions: 30 mg, Φ8 mm tooling, 10 kN held 30 s
Procedure: The amount of material sticking to the punch was weighed. The compression was repeated twice and the average amount of material sticking to the punch during the compression were recorded.

[4] = FaSSIF, 37° C.; disclosed in WO2017066775A1; cited from earlier work
[5] = Kinetic solubility of Form CSII (saturated solutions, HPLC); assay type: physicochemical
Procedure: The method parameters of kinetic solubility test in the present disclosure are as follows:
A certain amount of Form CSII was suspended into pH=7.4 PBS, pH=6.5 FaSSIF and pH=5.0 FeSSIF at 25° C. or 37° C. to obtain saturated solutions. After equilibration for 24 h, 30 h and 48 h, the suspensions were filtered to obtain saturated solutions, and concentration was determined by HPLC.

[6] = Stability of Form CSII in drug product (formulation process and storage); assay type: physicochemical; conditions: formulation and process of Tables 14 and 15
Procedure: Crystalline form before and after tableting were checked by XRPD.
The drug products of Form CSII were stored under 25° C./60% RH and 40° C./75% RH in closed dishes with 1 g of desiccant for 3 months to evaluate the stability of Form CSII in drug product.

[7] = Stability of Form CSII drug substance on storage (XRPD, HPLC purity); assay type: physicochemical; conditions: for Chemical purity during storage: drug substance
Procedure: X-ray powder diffraction patterns in the present disclosure were acquired by a Bruker D2 PHASER or Bruker D8 Discover X-ray powder diffractometer. The parameters of the X-ray powder diffraction method of the present disclosure are as follows:
The method parameters for relative substances test in the present disclosure are as follows:
A certain amount of Form CSII sample was stored at different conditions of 4° C., 25° C./60% RH, 40° C./75% RH and 60° C./75% RH. Crystalline form was checked by XRPD before and after storage.

[8] = Particle size distribution (Mastersizer 3000, wet mode); assay type: physicochemical; conditions: Isopar G containing 0.2% lecithin
Procedure: Proton nuclear magnetic resonance (H NMR) spectrum data were collected from a Bruker Avance II DMX 400M HZ NMR spectrometer. 1-5 mg of sample was weighed and dissolved in 0.5 mL of deuterated dimethyl sulfoxide to obtain a solution with a concentration of 2-10 mg/mL. The particle size distribution data in the present disclosure were acquired by a Mastersizer 3000 laser particle size analyzer of Malvern. The test is carried out in wet mode with a Hydro MV dispersing device, and the dispersion medium is Isopar G. The method parameters of the laser particle size analyzer are as follows:
The mixtures were mixed thoroughly and transferred into the Hydro MV. The measurement was started when the shading rate is in an appropriate position.

[9] = Mechanical stability (tableting at 10 kN, manual grinding; XRPD); assay type: physicochemical
Procedure: 30 mg of Form CSII was weighed into the dies of a Φ8 mm round tooling and tableted by ENERPAC manual tablet press with 10 kN pressure. Crystalline form before and after tableting were checked by XRPD. […] 10 mg of Form CSII was weighed into a mortar and ground manually for 5 min. The crystalline form before and after grinding were checked by XRPD.

[10] = listed as Form C in WO2017066775A1
[11] = FaSSIF pH 6.5, thermodynamic from solid, pH=6.5 FaSSIF, 37° C.
[12] = FeSSIF pH 5.0, thermodynamic from solid, pH=5.0 FeSSIF, 37° C.
[13] = PBS pH 7.4, aqueous buffer, thermodynamic from solid, pH=7.4 PBS, 25° C.
[14] = 25° C./60% RH, closed, 3 months
[15] = 40° C./75% RH, closed, 3 months

Diameter [1, 10]: 6.00 mm and 6.01 mm
Thickness [1, 10]: 2.14 mm and 2.18 mm and 2.07 mm
Average tensile strength [1, 10]: 0.69 MPa
Bulk density (ρ0) [2, 10]: 0.3611 g/mL
Flowability [2, 10]: Very poor (32-37)
Tapped density (ρf) [2, 10]: 0.5618 g/mL
Average amount of material sticking to the punch [3, 10]: 0.21 mg
SMILES: CC[C@@H]1CN(C(=O)NCC(F)(F)F)C[C@@H]1c1cnc2cnc3[nH]ccc3n12 [Form C, (3S,4R)-3-ethyl-4-(3H-imidazo[1,2-a]pyrrolo [2,3-e]pyrazin-8-yl)-N-(2,2,2-trifluoroethyl) pyrrolidine-1-carboxamide, reference compound]
Solubility [4]: 0.22 mg/mL (≈ 578 µM)

Diameter [1]: 6.05 mm and 6.04 mm and 6.03 mm
Thickness [1]: 2.35 mm and 2.16 mm and 2.12 mm
Average tensile strength [1]: 0.88 MPa
Bulk density (ρ0) [2]: 0.3295 g/mL
Flowability [2]: Excellent (≤10)
Tapped density (ρf) [2]: 0.3548 g/mL
Average amount of material sticking to the punch [3]: 0.16 mg
solubility at 24 h [5, 11]: 0.74 mg/mL (≈ 1950 µM)
solubility at 30 h [5, 11]: 0.76 mg/mL (≈ 2000 µM)
solubility at 48 h [5, 11]: 0.83 mg/mL (≈ 2180 µM)
solubility at 24 h [5, 12]: 1.4 mg/mL (≈ 3680 µM)
solubility at 30 h [5, 12]: 1.4 mg/mL (≈ 3680 µM)
solubility at 48 h [5, 12]: 1.5 mg/mL (≈ 3940 µM)
solubility at 24 h [5, 13]: 0.73 mg/mL (≈ 1920 µM)
solubility at 30 h [5, 13]: 0.74 mg/mL (≈ 1950 µM)
solubility at 48 h [5, 13]: 0.72 mg/mL (≈ 1890 µM)
Solubility compared with Form C ([5]; pH=7.4 PBS, FaSSIF and FeSSIF): higher
Crystalline form in the formulation process (before and after tableting, XRPD) [6]: stable
Time kept stable (crystalline state unchanged) ([7]; 4° C.): at least 3 months
Purity ([7]; 4° C., closed, 3 months): 99.41%
Solid form ([7]; 4° C., closed, 3 months): Form CSII
Purity [7, 14]: 99.42%
Solid form [7, 14]: Form CSII
Purity ([7]; 25° C./60% RH, open, 3 months): 99.43%
Solid form ([7]; 25° C./60% RH, open, 3 months): Form CSII
Purity [7, 15]: 99.42%
Solid form [7, 15]: Form CSII
Purity ([7]; 40° C./75% RH, open, 3 months): 99.44%
Solid form ([7]; 40° C./75% RH, open, 3 months): Form CSII
Purity ([7]; 60° C./75% RH, closed, 1 month): 99.43%
Solid form ([7]; 60° C./75% RH, closed, 1 month): Form CSII
Purity ([7]; 60° C./75% RH, open, 1 month): 99.48%
Solid form ([7]; 60° C./75% RH, open, 1 month): Form CSII
Purity ([7]; Initial): 99.35%
Solid form ([7]; Initial): Form CSII
Chemical purity during storage ([7]; 25° C./60% RH): above 99%
Chemical purity during storage ([7]; 40° C./75% RH and 60° C./75% RH): above 99%
Particle size distribution [8]: uniform
Crystallinity after tableting ([9]; 10 kN pressure): remained basically unchanged
Crystalline state after tableting ([9]; 10 kN pressure, Φ8 mm round tooling): does not change
Crystallinity after grinding ([9]; ground manually for 5 min): remained basically unchanged
SMILES: CC[C@@H]1CN(C(=O)NCC(F)(F)F)C[C@@H]1c1cnc2cnc3[nH]ccc3n12 [Form CSII, (3S,4R)-3-ethyl-4-(3H-imidazo[1,2-a]pyrrolo [2,3-e]pyrazin-8-yl)-N-(2,2,2-trifluoroethyl) pyrrolidine-1-carboxamide]
Crystalline state after grinding ([9]; ground manually for 5 min): does not change; also recorded: doesn't change
